Measured values taken from the supplement of paper PMC8671470.

Each compound was assayed on HL-60 (assay: area under dose-response curve (viability, 1 nM-10 uM) (fraction (0-1)); higher = more sensitive). Conditions: 72 h; co-treatment: AZD3965 100 nM.
Procedure, shortened: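 HL-60 cells grown in RPMI 1640 with 10% FBS were rescreened against the full library in 384-well plates, in duplicate, at five tenfold concentrations from 1 to 10,000 nM, alongside DMSO or 100 nM of one of three metabolic inhibitors for 72 h at 37 °C, 5% CO2. Reference wells contained DMSO or 10 μM proteasome inhibitor. Viability was read with CellTiter-Glo and normalised to these reference wells, and where reported, area under the curve was taken from four-parameter log-logistic fits in drc and PharmacoGx.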

Compound | area under dose-response curve
O[C@H]1[C@H]2[C@H](O)CCCN2C[C@H]1O [Swainsonine] | < 0.0301
Cc1coc2c1C(=O)C(=O)c1c-2ccc2c1CCCC2(C)C [Tanshinone IIA] | < 0.0301
Cc1cn([C@H]2C[C@H](O)[C@@H](COP(=O)(O)OP(=O)(O)O)O2)c(=O)[nH]c1=O [Thymidine diphosphate] | < 0.0301
CN(C)c1cc(NC(=O)CNC(C)(C)C)c(O)c2c1C[C@H]1C[C@H]3[C@H](N(C)C)C(=O)C(C(N)=O)C(=O)[C@@]3(O)C(=O)C1C2=O (some centres not stated) [Tigecycline] | < 0.0301
COc1ccc2c(C(=S)N(C)CC(=O)O)cccc2c1C(F)(F)F [Tolrestat] | < 0.0301
CC[C@@]1(O)C(=O)OCc2c1cc1n(c2=O)Cc2cc3c(CN(C)C)c(O)ccc3nc2-1 [Topotecan] | 0.608
CCC(=O)N1CCN(c2ccc(-n3c(=O)ccc4cnc5ccc(-c6cnc7ccccc7c6)cc5c43)cc2C(F)(F)F)CC1 [Torin1] | 0.0362

Same assay, conditions: 72 h; co-treatment: DMSO vehicle

Compound | area under dose-response curve
O[C@H]1[C@H]2[C@H](O)CCCN2C[C@H]1O [Swainsonine] | < 0.0301
Cc1coc2c1C(=O)C(=O)c1c-2ccc2c1CCCC2(C)C [Tanshinone IIA] | < 0.0301
Cc1cn([C@H]2C[C@H](O)[C@@H](COP(=O)(O)OP(=O)(O)O)O2)c(=O)[nH]c1=O [Thymidine diphosphate] | < 0.0301
CN(C)c1cc(NC(=O)CNC(C)(C)C)c(O)c2c1C[C@H]1C[C@H]3[C@H](N(C)C)C(=O)C(C(N)=O)C(=O)[C@@]3(O)C(=O)C1C2=O (some centres not stated) [Tigecycline] | < 0.0301
COc1ccc2c(C(=S)N(C)CC(=O)O)cccc2c1C(F)(F)F [Tolrestat] | < 0.0301
CC[C@@]1(O)C(=O)OCc2c1cc1n(c2=O)Cc2cc3c(CN(C)C)c(O)ccc3nc2-1 [Topotecan] | 0.585
CCC(=O)N1CCN(c2ccc(-n3c(=O)ccc4cnc5ccc(-c6cnc7ccccc7c6)cc5c43)cc2C(F)(F)F)CC1 [Torin1] | < 0.0301

Same assay, conditions: 72 h; co-treatment: GSK2194069 100 nM

Compound | area under dose-response curve
O[C@H]1[C@H]2[C@H](O)CCCN2C[C@H]1O [Swainsonine] | < 0.0301
Cc1coc2c1C(=O)C(=O)c1c-2ccc2c1CCCC2(C)C [Tanshinone IIA] | < 0.0301
Cc1cn([C@H]2C[C@H](O)[C@@H](COP(=O)(O)OP(=O)(O)O)O2)c(=O)[nH]c1=O [Thymidine diphosphate] | < 0.0301
CN(C)c1cc(NC(=O)CNC(C)(C)C)c(O)c2c1C[C@H]1C[C@H]3[C@H](N(C)C)C(=O)C(C(N)=O)C(=O)[C@@]3(O)C(=O)C1C2=O (some centres not stated) [Tigecycline] | < 0.0301
COc1ccc2c(C(=S)N(C)CC(=O)O)cccc2c1C(F)(F)F [Tolrestat] | < 0.0301
CC[C@@]1(O)C(=O)OCc2c1cc1n(c2=O)Cc2cc3c(CN(C)C)c(O)ccc3nc2-1 [Topotecan] | 0.58
CCC(=O)N1CCN(c2ccc(-n3c(=O)ccc4cnc5ccc(-c6cnc7ccccc7c6)cc5c43)cc2C(F)(F)F)CC1 [Torin1] | < 0.0301

Same assay, conditions: 72 h; co-treatment: pictilisib 100 nM

Compound | area under dose-response curve
O[C@H]1[C@H]2[C@H](O)CCCN2C[C@H]1O [Swainsonine] | < 0.0301
Cc1coc2c1C(=O)C(=O)c1c-2ccc2c1CCCC2(C)C [Tanshinone IIA] | < 0.0301
Cc1cn([C@H]2C[C@H](O)[C@@H](COP(=O)(O)OP(=O)(O)O)O2)c(=O)[nH]c1=O [Thymidine diphosphate] | < 0.0301
CN(C)c1cc(NC(=O)CNC(C)(C)C)c(O)c2c1C[C@H]1C[C@H]3[C@H](N(C)C)C(=O)C(C(N)=O)C(=O)[C@@]3(O)C(=O)C1C2=O (some centres not stated) [Tigecycline] | < 0.0301
COc1ccc2c(C(=S)N(C)CC(=O)O)cccc2c1C(F)(F)F [Tolrestat] | < 0.0301
CC[C@@]1(O)C(=O)OCc2c1cc1n(c2=O)Cc2cc3c(CN(C)C)c(O)ccc3nc2-1 [Topotecan] | 0.597

These compounds were tested on HEL (assay: not given). Conditions: 72 h.
Procedure, shortened: (§1)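 In 384-well plates holding acoustically pre-printed compounds at five tenfold doses from 1 to 10,000 nM, in duplicate, fifteen myeloid leukaemia cell lines were grown in RPMI 1640 for 72 h at 37 °C with 5% CO2. Luminescent ATP viability was scaled between vehicle and a positive control at 10 µM. The IC50 was then taken from log-logistic dose–response fits with four parameters.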

Compound | IC50 (cell viability) [µM]
O[C@H]1[C@H]2[C@H](O)CCCN2C[C@H]1O [Swainsonine] | > 10
Cc1coc2c1C(=O)C(=O)c1c-2ccc2c1CCCC2(C)C [Tanshinone IIA] | > 10
Cc1cn([C@H]2C[C@H](O)[C@@H](COP(=O)(O)OP(=O)(O)O)O2)c(=O)[nH]c1=O [Thymidine diphosphate] | > 10
CN(C)c1cc(NC(=O)CNC(C)(C)C)c(O)c2c1C[C@H]1C[C@H]3[C@H](N(C)C)C(=O)C(C(N)=O)C(=O)[C@@]3(O)C(=O)C1C2=O (some centres not stated) [Tigecycline] | > 10
COc1ccc2c(C(=S)N(C)CC(=O)O)cccc2c1C(F)(F)F [Tolrestat] | > 10
CC[C@@]1(O)C(=O)OCc2c1cc1n(c2=O)Cc2cc3c(CN(C)C)c(O)ccc3nc2-1 [Topotecan] | 0.0333
CCC(=O)N1CCN(c2ccc(-n3c(=O)ccc4cnc5ccc(-c6cnc7ccccc7c6)cc5c43)cc2C(F)(F)F)CC1 [Torin1] | 0.594

Each compound was assayed on K-562 (assay: not given). Conditions: 72 h.
Procedure, shortened: as §1

Compound | IC50 (cell viability) [µM]
O[C@H]1[C@H]2[C@H](O)CCCN2C[C@H]1O [Swainsonine] | > 10
Cc1coc2c1C(=O)C(=O)c1c-2ccc2c1CCCC2(C)C [Tanshinone IIA] | > 10
Cc1cn([C@H]2C[C@H](O)[C@@H](COP(=O)(O)OP(=O)(O)O)O2)c(=O)[nH]c1=O [Thymidine diphosphate] | > 10
CN(C)c1cc(NC(=O)CNC(C)(C)C)c(O)c2c1C[C@H]1C[C@H]3[C@H](N(C)C)C(=O)C(C(N)=O)C(=O)[C@@]3(O)C(=O)C1C2=O (some centres not stated) [Tigecycline] | > 10
COc1ccc2c(C(=S)N(C)CC(=O)O)cccc2c1C(F)(F)F [Tolrestat] | > 10
CC[C@@]1(O)C(=O)OCc2c1cc1n(c2=O)Cc2cc3c(CN(C)C)c(O)ccc3nc2-1 [Topotecan] | 0.097
CCC(=O)N1CCN(c2ccc(-n3c(=O)ccc4cnc5ccc(-c6cnc7ccccc7c6)cc5c43)cc2C(F)(F)F)CC1 [Torin1] | 0.327

What follows are compounds tested on KG-1 (assay: not given). Conditions: 72 h.
Procedure, shortened: as §1

Compound | IC50 (cell viability) [µM]
O[C@H]1[C@H]2[C@H](O)CCCN2C[C@H]1O [Swainsonine] | > 10
Cc1coc2c1C(=O)C(=O)c1c-2ccc2c1CCCC2(C)C [Tanshinone IIA] | > 10
Cc1cn([C@H]2C[C@H](O)[C@@H](COP(=O)(O)OP(=O)(O)O)O2)c(=O)[nH]c1=O [Thymidine diphosphate] | > 10
CN(C)c1cc(NC(=O)CNC(C)(C)C)c(O)c2c1C[C@H]1C[C@H]3[C@H](N(C)C)C(=O)C(C(N)=O)C(=O)[C@@]3(O)C(=O)C1C2=O (some centres not stated) [Tigecycline] | > 10
COc1ccc2c(C(=S)N(C)CC(=O)O)cccc2c1C(F)(F)F [Tolrestat] | > 10
CC[C@@]1(O)C(=O)OCc2c1cc1n(c2=O)Cc2cc3c(CN(C)C)c(O)ccc3nc2-1 [Topotecan] | 0.0427
CCC(=O)N1CCN(c2ccc(-n3c(=O)ccc4cnc5ccc(-c6cnc7ccccc7c6)cc5c43)cc2C(F)(F)F)CC1 [Torin1] | 0.295

The compounds below were run on Mono-Mac-6 (assay: not given). Conditions: 72 h.
Procedure, shortened: as §1

Compound | IC50 (cell viability) [µM]
O[C@H]1[C@H]2[C@H](O)CCCN2C[C@H]1O [Swainsonine] | > 10
Cc1coc2c1C(=O)C(=O)c1c-2ccc2c1CCCC2(C)C [Tanshinone IIA] | > 10
Cc1cn([C@H]2C[C@H](O)[C@@H](COP(=O)(O)OP(=O)(O)O)O2)c(=O)[nH]c1=O [Thymidine diphosphate] | > 10
CN(C)c1cc(NC(=O)CNC(C)(C)C)c(O)c2c1C[C@H]1C[C@H]3[C@H](N(C)C)C(=O)C(C(N)=O)C(=O)[C@@]3(O)C(=O)C1C2=O (some centres not stated) [Tigecycline] | > 10
COc1ccc2c(C(=S)N(C)CC(=O)O)cccc2c1C(F)(F)F [Tolrestat] | > 10
CC[C@@]1(O)C(=O)OCc2c1cc1n(c2=O)Cc2cc3c(CN(C)C)c(O)ccc3nc2-1 [Topotecan] | 0.0344
CCC(=O)N1CCN(c2ccc(-n3c(=O)ccc4cnc5ccc(-c6cnc7ccccc7c6)cc5c43)cc2C(F)(F)F)CC1 [Torin1] | 0.333

These compounds were tested on MOLM-13 (assay: not given). Conditions: 72 h.
Procedure, shortened: as §1

Compound | IC50 (cell viability) [µM]
O[C@H]1[C@H]2[C@H](O)CCCN2C[C@H]1O [Swainsonine] | > 10
Cc1coc2c1C(=O)C(=O)c1c-2ccc2c1CCCC2(C)C [Tanshinone IIA] | > 10
Cc1cn([C@H]2C[C@H](O)[C@@H](COP(=O)(O)OP(=O)(O)O)O2)c(=O)[nH]c1=O [Thymidine diphosphate] | > 10
CN(C)c1cc(NC(=O)CNC(C)(C)C)c(O)c2c1C[C@H]1C[C@H]3[C@H](N(C)C)C(=O)C(C(N)=O)C(=O)[C@@]3(O)C(=O)C1C2=O (some centres not stated) [Tigecycline] | > 10
COc1ccc2c(C(=S)N(C)CC(=O)O)cccc2c1C(F)(F)F [Tolrestat] | > 10
CC[C@@]1(O)C(=O)OCc2c1cc1n(c2=O)Cc2cc3c(CN(C)C)c(O)ccc3nc2-1 [Topotecan] | 0.018
CCC(=O)N1CCN(c2ccc(-n3c(=O)ccc4cnc5ccc(-c6cnc7ccccc7c6)cc5c43)cc2C(F)(F)F)CC1 [Torin1] | 0.208

Each compound was assayed on KCL-22 (assay: not given). Conditions: 72 h.
Procedure, shortened: as §1

Compound | IC50 (cell viability) [µM]
O[C@H]1[C@H]2[C@H](O)CCCN2C[C@H]1O [Swainsonine] | > 10
Cc1coc2c1C(=O)C(=O)c1c-2ccc2c1CCCC2(C)C [Tanshinone IIA] | > 10
Cc1cn([C@H]2C[C@H](O)[C@@H](COP(=O)(O)OP(=O)(O)O)O2)c(=O)[nH]c1=O [Thymidine diphosphate] | > 10
CN(C)c1cc(NC(=O)CNC(C)(C)C)c(O)c2c1C[C@H]1C[C@H]3[C@H](N(C)C)C(=O)C(C(N)=O)C(=O)[C@@]3(O)C(=O)C1C2=O (some centres not stated) [Tigecycline] | > 10
COc1ccc2c(C(=S)N(C)CC(=O)O)cccc2c1C(F)(F)F [Tolrestat] | > 10
CC[C@@]1(O)C(=O)OCc2c1cc1n(c2=O)Cc2cc3c(CN(C)C)c(O)ccc3nc2-1 [Topotecan] | 0.0594
CCC(=O)N1CCN(c2ccc(-n3c(=O)ccc4cnc5ccc(-c6cnc7ccccc7c6)cc5c43)cc2C(F)(F)F)CC1 [Torin1] | 0.251

Each compound was assayed on KU-812 (assay: not given). Conditions: 72 h.
Procedure, shortened: as §1

Compound | IC50 (cell viability) [µM]
O[C@H]1[C@H]2[C@H](O)CCCN2C[C@H]1O [Swainsonine] | > 10
Cc1coc2c1C(=O)C(=O)c1c-2ccc2c1CCCC2(C)C [Tanshinone IIA] | > 10
Cc1cn([C@H]2C[C@H](O)[C@@H](COP(=O)(O)OP(=O)(O)O)O2)c(=O)[nH]c1=O [Thymidine diphosphate] | > 10
CN(C)c1cc(NC(=O)CNC(C)(C)C)c(O)c2c1C[C@H]1C[C@H]3[C@H](N(C)C)C(=O)C(C(N)=O)C(=O)[C@@]3(O)C(=O)C1C2=O (some centres not stated) [Tigecycline] | > 10
COc1ccc2c(C(=S)N(C)CC(=O)O)cccc2c1C(F)(F)F [Tolrestat] | > 10
CC[C@@]1(O)C(=O)OCc2c1cc1n(c2=O)Cc2cc3c(CN(C)C)c(O)ccc3nc2-1 [Topotecan] | 0.0407
CCC(=O)N1CCN(c2ccc(-n3c(=O)ccc4cnc5ccc(-c6cnc7ccccc7c6)cc5c43)cc2C(F)(F)F)CC1 [Torin1] | 0.191

These compounds were tested on NOMO-1 (assay: not given). Conditions: 72 h.
Procedure, shortened: as §1

Compound | IC50 (cell viability) [µM]
O[C@H]1[C@H]2[C@H](O)CCCN2C[C@H]1O [Swainsonine] | > 10
